Ki and IC50 data for eight compounds are collected here from article PMC9785863, “Thioether and Ether Furofuran Lignans: Semisynthesis, Reaction Mechanism, and Inhibitory Effect against α-Glucosidase and Free Radicals” (Molecules, 2022).

For the first experiment, the target named is T1, rat intestinal maltase.
T1 construct: gene Mgam; native, crude extract of rat intestinal acetone powder (Sigma), not purified; maltose-hydrolysing activity, shared by maltase-glucoamylase and sucrase-isomaltase
Nature of the experiment: maltose hydrolysis, glucose assay kit, Lineweaver-Burk with secondary replots. It is filed as biochemical. As to conditions: mixed inhibition; maltose 0.5-8 mM; pH 6.9, 37 °C. The source says: maltose hydrolysis, glucose assay kit, Lineweaver-Burk with secondary replots on rat intestinal maltase
As for `CC(C)(C)c1cc(SC2OCC3C(c4ccc5c(c4)OCO5)OCC23)cc(C(C)(C)C)c1O` (stereo not drawn) [2α-7o], the Ki is 0.03 mM.

The target of a further experiment is T1, rat intestinal maltase. Nature of the experiment: maltose hydrolysis, glucose assay kit, absorbance at […] nm. It is filed as biochemical. As to conditions: maltose (2 mM stock), 0.1 M phosphate pH 6.9, 37 °C, 10 min; read-out: α-Glucosidase Inhibitory Effect (IC50, mM) ^a / Maltase.
For the compound `CCCCCCCCS[C@H]1OC[C@H]2[C@@H]1CO[C@@H]2c1ccc2c(c1)OCO2` [2α-7a], the IC50 was > 30 mM.

Take `OCCCCCCS[C@H]1OC[C@H]2[C@@H]1CO[C@@H]2c1ccc2c(c1)OCO2` [2α-7b]: the IC50 was > 30 mM. Turning to `c1cc2c(cc1[C@H]1OC[C@H]3[C@@H]1CO[C@@H]3SC1CCCCC1)OCO2` [2α-7c], the IC50 is > 30 mM. Regarding `Oc1ccc(S[C@H]2OC[C@H]3[C@@H]2CO[C@@H]3c2ccc3c(c2)OCO3)cc1` [2α-7f], the IC50 was found to be 14.7 ± 1 mM. For the compound `CC(C)(C)c1cc(SC2OCC3C(c4ccc5c(c4)OCO5)OCC23)cc(C(C)(C)C)c1O` (stereo not drawn) [2α-7o], the IC50 is 11.8 ± 0.3 mM. For `CCCCCCCCO[C@H]1OC[C@H]2[C@@H]1CO[C@@H]2c1ccc2c(c1)OCO2` [2α-9b], the IC50 is > 30 mM. With `Oc1ccc(S[C@@H]2OC[C@H]3[C@@H]2CO[C@@H]3c2ccc3c(c2)OCO3)cc1` [2β-7f], the IC50 was 14.2 ± 0.8 mM. For `C[C@H]1O[C@H](O[C@H]2[C@H](O)[C@@H](O)[C@@H](O[C@H]3[C@H](O)[C@@H](O)C(O)O[C@@H]3CO)O[C@@H]2CO)[C@H](O)[C@@H](O)[C@@H]1N[C@H]1C=C(CO)[C@@H](O)[C@H](O)[C@H]1O` (stereo partly drawn) [acarbose, reference compound], the IC50 came to 1.4 ± 0.2 mM.

What is called Ki is a measure of affinity in units of concentration, obtained from inhibition or displacement.
